Experimental data reported in patent publication US20140288040A1, “SUBSTITUTED BENZYLAMINE COMPOUNDS, THEIR USE IN MEDICINE, AND IN PARTICULAR THE TREATMENT OF HEPATITIS C VIRUS (HCV) INFECTION” (ASTEX THERAPEUTICS LIMITED, priority 2011, published 2014).
Counter-ions that a name gives are not always drawn. Like-named read-outs stand apart in the source and are kept apart here.

How the values were obtained:
[1] = tested on: HCV subgenomic replicon in Huh-7 cells; experiment: Replicon assay, EC50 luciferase readout; type: cell-based, hepatitis C virus (HCV); settings: Hepatitis C virus, Huh-7, 72 h, single value, or second value of a pair x:y
Experimental: The activities of compounds of the invention against HCV in a cellular environment were analysed using a replicon assay as described below.
Thus, Huh-7 cells persistently infected with an HCV-RNA construct (Bartenschlager, R. Hepatitis C replicons: potential role for drug development. Nature Rev. Drug Discov. 1, 911-916 (2002)) comprising: 5′ and 3′ non-translated regions (NTR); the non-structural genes NS3 to NS5b; as well as the G418 drug resistance gene, neomycin, (for selection of cells carrying HCV replicon RNA) fused to the firefly Luciferase reporter gene (pFK13889luc-ubi-neoNS3-3′ET), were used to determine the cell based antiviral activity of compounds using luciferase activity as an indirect readout of HCV RNA load. In this assay […] huh-7 cells persistently infected with the HCV subgenomic replicon construct above were platedwell in a 96 well tissue culture plate. The cells were allowed to attach overnight in DMEM medium supplemented with 10% FBS 1% NEAA, and 250 μgml gentamicin. The following day the medium was replaced with 200 μlwell of fresh medium as described above lacking gentamicin. […] Plates were then incubated at 37° C. in an atmosphere of 5% CO2 and air for 72 h. […] The plate was then read at 535 nm (excitation) and 590 nm (emission) on a SpectraMax Gemini reader (Molecular Devices) to determine the number of viable cells by measuring the conversion of rezasurin (Alamar blue) to resorufin in response to mitochondrial activity. In order to determine the antiviral effect of these compounds EC50 values were determined by measuring the luciferase activity of the cells. Alamar blue solution was removed from the wells and replaced with 100 μlwell of medium along with 100 μlwell of Bright-Glo reagent and incubated at room temperature for 5 minutes before transferring 100 μlwell to a white bottom 96 well plate to read in a luminometer as described in the Bright-Glo Luciferase Assay System protocol (promega).

[2] = target: T1, HCV NS3 protease (full length NS34a) (Hepatitis C virus genotype 1b, UniProt P26663); experiment: HCV NS3 protease assay (FRET, full length NS34a); type: biochemical
T1 construct: The protease activity of the full length NS34a was measured using a FRET-based assay; made in house
Procedure, shortened: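 Full-length NS34a incubated with compound and an NS4AB cleavage-site FRET peptide (QXL520 quencher, 5-FAMsp fluorophore) in 50 mM Tris pH8, 20 mM DTT, 1% CHAPS, 10% glycerol, 5% DMSO. Fluorescence followed for 30 minutes at room temperature; IC50 from initial rates of replicate progress curves.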

[3] = Huh-7 replicon cells, 72 h, read-out: Activity EC50 (μM) (EC50 luciferase readout)
[4] = protease activity of full length NS34a, FRET peptide substrate, read-out: Activity IC50
[5] = IC50 values of 10-150 μM against the protease activity of the full length NS34a, or at least 40% inhibition of protease activity at a concentration of 100 μM

T1 sequence (P26663 1658-1711): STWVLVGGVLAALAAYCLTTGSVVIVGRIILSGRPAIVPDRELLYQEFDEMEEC
T1 sequence (P26663 1027-1657): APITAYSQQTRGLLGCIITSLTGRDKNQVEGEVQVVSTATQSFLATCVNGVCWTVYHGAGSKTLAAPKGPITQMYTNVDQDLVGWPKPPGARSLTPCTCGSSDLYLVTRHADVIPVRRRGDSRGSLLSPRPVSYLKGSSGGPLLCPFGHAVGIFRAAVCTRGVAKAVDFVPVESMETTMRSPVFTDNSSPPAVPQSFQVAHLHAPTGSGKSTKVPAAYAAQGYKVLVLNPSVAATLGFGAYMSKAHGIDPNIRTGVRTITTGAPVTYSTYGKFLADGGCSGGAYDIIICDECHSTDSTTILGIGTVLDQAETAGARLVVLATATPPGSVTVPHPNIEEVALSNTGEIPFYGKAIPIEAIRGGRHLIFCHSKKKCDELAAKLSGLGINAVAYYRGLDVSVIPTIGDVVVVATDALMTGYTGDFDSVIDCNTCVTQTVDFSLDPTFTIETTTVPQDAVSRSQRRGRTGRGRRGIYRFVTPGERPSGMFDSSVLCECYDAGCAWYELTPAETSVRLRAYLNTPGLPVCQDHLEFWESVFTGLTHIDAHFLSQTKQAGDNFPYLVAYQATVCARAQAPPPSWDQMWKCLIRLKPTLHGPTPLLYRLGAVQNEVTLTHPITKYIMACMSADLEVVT

Structure (SMILES)	EC50 [1, 3] [µM]	IC50 [2, 4] [µM]	other results
N[C@H]1CC[C@H](NCc2ccc(Cl)c(Oc3ccccc3)c2F)CC1 [Example 271, trans-N-(4-Chloro-2-fluoro-3-phenoxy-benzyl)-cyclohexane-1,4-diamine. dihydrochloride]	0.34	0.26	–
CC[C@@H](N[C@H](C)CC(=O)NCCN)c1ccc(Cl)c(Oc2ccccc2)c1F [Example 223, (R)—N-(2-Amino-ethyl)-3-[(R)-1-(4-chloro-2-fluoro-3-phenoxy-phenyl)-propylamino]-butyramide.dihydrochloride]	> 30	–	IC50 ([2]; Activity IC50 (μM), protease activity of full length NS34a, FRET peptide substrate): 0.081 µM
CC[C@@H](N[C@H](C)c1cc[nH]c1)c1ccc(Cl)c(Oc2ccccc2)c1F [Example 163, [(R)-1-(4-Chloro-2-fluoro-3-phenoxy-phenyl)-propyl]-1-[(R)-1-(1H-pyrrol-3-yl)-ethyl]-amine.dihydrochloride]	0.94	2.5	–
N[C@H](CC1CCNCC1)c1ccc(F)c(Oc2ccccc2)c1F [Example 82]	0.79	1.9	–
CC[C@H](N[C@@H](C)CC(N)=O)c1ccc(Cl)c(Oc2ccccc2)c1Cl [Example 324]	> 10	1.8	–
C[C@@H](CC(=O)NCCN)NCc1ccc(Cl)c(Oc2ccccc2)c1F [Example 329]	4	–	inhibition at 0.03 µM ([2]; read-out: Activity % inhibition @ 0.03 μM, 0.03 μM compound): 57%
CC[C@@H](N[C@@H](C)CC(=O)N[C@H](C)CO)c1ccc(Cl)c(Oc2ccccc2)c1F [Example 207]	–	0.21	EC50 ([1]; read-out: Activity EC50 (μM) (EC50 luciferase readout), Huh-7 replicon cells, 72 h): > 10 µM
CCC(NC(C)C)c1ccc(F)c(Oc2ccccc2)c1F (stereo not drawn) [Example 34]	1.2	4	–
Cc1cc(Oc2c(F)ccc(CN[C@H]3CC[C@@H](N)CC3)c2F)ccc1N [Example 288]	1.4	1.4	–
CC[C@@H](N[C@@H](C)CC(N)=O)c1ccc(Cl)c(Oc2ccc(N)nc2)c1F [Example 124]	0.28	0.11	–
C[C@@H](CO)N[C@H](CC1CCNCC1)c1ccc(F)c(Oc2ccccc2)c1F [Example 89]	1.8	3.9	–
C[C@H](CO)N[C@H](CC1CCNCC1)c1ccc(F)c(Oc2ccccc2)c1F [Example 90]	0.36	–	IC50 [2, 5]: 10 to 150 µM
CC[C@@H](N[C@@H](C)CC(=O)NCCNCc1ccccc1)c1ccc(Cl)c(Oc2ccccc2)c1F [Example 265]	0.47	1.1	–
CC(C)CC(N)c1ccc(F)c(Oc2ccccc2)c1F (stereo not drawn) [Example 2]	2.4	2.2	–
CC[C@@H](N)c1ccc(Cl)c(Oc2ccc(C#N)c(C)c2)c1F [Example 221]	> 30	0.43	–
CC[C@@H](N[C@@H](C)CC(N)=O)c1ccc(Cl)c(Oc2ccc(N)c(OC)c2)c1F [Example 255]	0.012	0.23	–
CC[C@@H](N[C@@H](C)CC(N)=O)c1ccc(Cl)c(Oc2ccc([N+](=O)[O-])cc2)c1F [Example 201]	> 10	0.2	–
CC[C@@H](N[C@@H](C)CC(N)=O)c1ccc(Cl)c(Oc2ccc(C)nc2)c1F [Example 313]	> 10	0.15	–
C[C@H](CO)N[C@@H](CC1CCNCC1)c1ccc(F)c(Oc2ccccc2)c1F [Example 95B, (R)-2-[(S)-1-(2,4-Difluoro-3-phenoxy-phenyl)-2-piperidin-4-yl-ethylamino]-propan-1-ol.dihydrochloride]	0.16	0.41	–
CC[C@@H](N[C@@H](C)CC(N)=O)c1ccc(Cl)c(Oc2cccc(CO)c2)c1F [Example 116]	0.19	0.13	–
CC[C@H](N)c1ccc(F)c(Oc2ccccc2)c1F [Example 52]	9.4	1.8	–
CC[C@@H](N[C@@H](C)CC(N)=O)c1ccc(Cl)c(Oc2ccc(C#N)c(F)c2)c1F [Example 213]	5.2	0.13	–
CC[C@@H](N)c1ccc(Cl)c(Oc2ccccc2)c1F [Example 78]	9.6	1.2	–

Structure (SMILES)	EC50 [1, 3] [µM]	IC50 [2, 4] [µM]	other results
CC[C@@H](N[C@@H](C)CC(N)=O)c1ccc(Cl)c(Oc2cccc(CNS(C)(=O)=O)c2)c1F [Example 216]	> 10	0.97	–
N[C@H]1CC[C@@H](NCc2cccc(Oc3ccccc3)c2)CC1 [Example 281]	0.79	10	–
CCC(NC(C)CC(=O)NC)c1ccc(F)c(Oc2ccccc2)c1F (stereo not drawn) [Example 49]	> 30	3.2	–
CCN(Cc1ccc(Cl)c(Oc2ccccc2)c1F)[C@H]1CC[C@H](N)CC1 [Example 273B, trans-N-(4-Chloro-2-fluoro-3-phenoxy-benzyl)-N-ethyl-cyclohexane-1,4-diamine.dihydrochloride]	0.76	2.3	–
CC[C@H](Nc1ncc[nH]1)c1ccc(Cl)c(Oc2ccccc2)c1F [Example 275, [(S)-1-(4-Chloro-2-fluoro-3-phenoxy-phenyl)-propyl]-(1H-imidazol-2-yl)-amine.hydrochloride]	> 10	0.41	–
CC[C@@H](N[C@@H](C)c1cc[nH]c1)c1ccc(Cl)c(Oc2ccccc2)c1F [Example 164]	2.3	0.27	–
CC[C@H](NC(C)CO)c1ccc(Cl)c(Oc2ccccc2)c1F (stereo partly drawn) [Example 81]	11	0.39	–
C[C@H](CC(=O)NCCN)NCc1ccc(Cl)c(Oc2ccccc2)c1F [Example 107, (R)—N-(2-Amino-ethyl)-3-(4-chloro-2-fluoro-3-phenoxy-benzylamino)-butyramide.dihydrochloride]	> 10	0.22	–
N[C@H]1CC[C@H](CNCc2ccc(Cl)c(Oc3ccccc3)c2F)CC1 [Example 289]	0.18	1.1	–
CCC(NCC1CCNCC1)c1ccc(F)c(Oc2ccccc2)c1F (stereo not drawn) [Example 29]	0.47	4.4	–
NC(C1=NCCN1)c1ccc(F)c(Oc2ccccc2)c1F (stereo not drawn) [Example 50, C-(2,4-Difluoro-3-phenoxy-phenyl)-C-(4,5-dihydro-1H-imidazol-2-yl)-methylamine.dihydrobromide]	23	–	IC50 [2, 5]: 10 to 150 µM
CC[C@H](N[C@H](C)CC(N)=O)c1ccc(Cl)c(Oc2ccccc2)c1Cl [Example 325]	> 10	–	IC50 [2, 5]: 10 to 150 µM
N[C@H]1CC[C@H](NCc2cccc(Oc3ccccc3)c2)CC1 [Example 280]	0.4	5.3	–
CC[C@@H](N[C@@H](C)CC(=O)NOC)c1ccc(Cl)c(Oc2ccccc2)c1F [Example 155]	> 10	1.7	–
CCC(N[C@H]1CC[C@@H](N)CC1)c1ccc(F)c(Oc2ccccc2)c1F (stereo partly drawn) [Example 6, cis-N-[1-(2,4-Difluoro-3-phenoxy-phenyl)-propyl]-cyclohexane-1,4-diamine dihydrochloride]	0.14	–	IC50 [2, 5]: 10 to 150 µM
C#Cc1ccc(Oc2c(Cl)ccc([C@@H](CC)N[C@@H](C)CC(N)=O)c2F)cc1 [Example 230]	0.48	0.17	–
CCC(NCCO)c1ccc(F)c(Oc2ccccc2)c1F (stereo not drawn) [Example 45, 2-[1-(2,4-Difluoro-3-phenoxy-phenyl)-propylamino]-ethanol. hydrochloride]	9.1	1.7	–
CC[C@@H](NCCC(N)=O)c1ccc(Cl)c(Oc2ccccc2)c1F [Example 97, 3-[(R)-1-(4-Chloro-2-fluoro-3-phenoxy-phenyl)-propylamino]-propionamide.hydrochloride]	> 10	0.84	–
CC[C@@H](N[C@@H](C)CC(=O)NCCCN)c1ccc(Cl)c(Oc2ccccc2)c1F [Example 240]	8.9	–	inhibition at 0.01 µM ([2]; read-out: Activity % inhibition @ 0.01 μM, 0.01 μM compound): 42%
CCC(NCCC1CCCNC1)c1ccc(F)c(Oc2ccccc2)c1F (stereo not drawn) [Example 27]	0.26	1	–
C[C@H](CC(N)=O)N[C@H](CC1CCNCC1)c1ccc(F)c(Oc2ccccc2)c1F [Example 85]	18	–	IC50 [2, 5]: 10 to 150 µM
CC[C@H](N)c1ccc(Cl)c(Oc2ccccc2)c1F [Example 77]	12	0.59	–
